Data: patent US9522935B2, “Commands and method of treating cancer via RHO pathway” (priority 2013, dated 2016)

How the values were obtained:
[1] = tested on: HepG2 (liver cancer cell line); assay: MTT assay, LD030 on HepG2; type: cell-based; settings: Homo sapiens, 48 hours, read-out: inhibition rate on cell growth
Procedure: MTT assay, a well known method known in the art, was used to analyze anticancer effects of compound LD030 on human cancer cell lines, such as, HepG2 (liver cancer cell line), PancI (pancreatic cancer cell line), NCI-H460 (lung cancer cell line), MCF-7 (breast adenocarcinoma cell line) and SF-268 (brain tumor cell lines). An LD030 solution was diluted gradually to obtain a serial of LD030 solutions with decreasing concentrations, which was used to treat various cancer cell lines mentioned above incubated in separate container. […] For incubating with HepG2 cell line, LD030's concentrations were 0.001 μM, 0.01 μM, 0.1 μM, 1 μM, 10 μM, 100 μM. For PancI cell line, the concentrations were 0.1 μM, 1 μM, 10 μM, 100 μM. For NCI-H460 cell line, the concentrations were 0.001 μM, 0.01 μM, 0.1 μM, 1 μM, 10 μM, 100 μM. For MCF-7 cell line, the concentrations were 0.001 μM, 0.01 μM, 0.1 μM, 1 μM, 10 μM, 100 μM. For SF-268 cell line, the concentrations were 0.001 μM, 0.01 μM, 0.1 μM, 1 μM, 10 μM, 100 μM.

HepG2 cells = assay: Flow cytometry (PI staining) for apoptosis of HepG2 cells; type: cell-based, human; settings: HepG2, 24 hours, 0.03-17.5 μM
Procedure: The study was conduct by using flow cytometry to detect apoptosis of HepG2 cells after being treated for 24 hours with LD030 at concentrations 0.03 μM, 0.14 μM, 0.7 μM, 3.5 μM, and 17.5 μM along with blank control. Then proceeded as follows:
1. Collect cells (1-5×10^6/mL), centrifuge at 500-1000 r/min for 5 min, and discard the culture medium.
2. Wash the cells with 3 ml PBS once.
3. Centrifuge to discard PBS, and add 70% ice-cold ethanol for fixation, 4° C., 1-2 hours.
4. Centrifuge to discard ethanol, and re-suspend in 3 ml PBS for 5 min.
5. Filter with a 400 mesh screen, and centrifuge 500-1000 r/min for 5 min to discard PBS.
6. Stain with 1 ml propidium iodide (Propidium Iodide, PI) at 4° C. in the dark for 30 min.
7. Conduct flow cytometry.

[2] = tested on: Jak/STAT phosphorylation in PancI cells; assay: Western Blotting of signal pathway proteins in PancI cells; type: cell-based, human
Procedure: The Jak/STAT channel plays an important role in cell growth, proliferation, and survival. Using Western Blotting, the present invention studied the effect of LD030 on Jak/STAT phosphorylation in PancI cells.
The cells were treated with LD030 at concentrations of 20 μM and 50 μM, for 4 hours, 8 hours, 24 hours, and 48 hours. After the treatment, the cells were collected and subject to lysis in the buffer (50 mM Tris-HCl pH7.5, 100 mM NaCl, 5 mM EDTA, 40 mM NaP2O7, 1% Triton X-100, 1 mM dithiothreitol, 200 μM Na3VO4, 100 μM phenylmethysufonyl fluoride fluoride, 2 μg/ml leupeptin, 4 μg/ml aprotinin and 0.7 μg/ml pepstatin). Analysis of stained protein (BioRad, 500-0006) was conduct for adjusting the protein concentration. Same quantity of protein (50 μg/lane) was used for 10% SDS-polyacrylamide gel electrophoresis, and then electrically transferred to the polyvinylidene fluoride (PVDF) membrane. The membrane was treated with antibodies specific to p-Jak2 (Cell signaling, 3771), p-Stat3 (Cell signaling, 9131) and α-tubulin (Zymed Laboratories, 32-2500). Visible protein bands were detected with an enhanced chemiluminescence (ECL Plus) detection system (Amersham).
The protein electrophoresis results in the above described experiments are shown FIGS. 23 and 24 for LD030 treatments at 20 μM and 50 μM, respectively. […] The expression of tubulin as internal reference was basically unchanged.

[3] = 20 μM, at 24 hours and 48 hours, versus blank control
[4] = 50 μM, at 24 hours and 48 hours, versus blank control

With `CC(=O)OC(C)(C)C(=O)CCC(C)C1CC[C@@]2(C)C34CC[C@H]5C(C)(C)[C@@H](O)CC[C@]5(C)C3(CC[C@]12C)O4` (stereo partly shown) [LD030] the inhibition at 100 µM [1] was over 80%, the “cell lysis by flow cytometry” value (HepG2 cells) was “greater proportions of cell lysis with increased LD030 concentrations” and the p-jak2 [2, 3] was “significantly reduced”. The “p-stat3 (tyr705)” value [2, 3] was “significantly reduced”, the p-JNK ([2]; 20 μM, versus blank control) was “up-regulates” and the p-ERK [2, 4] was “significantly reduced”. For the same compound, the p-c-raf [2, 4] was “significantly reduced”, the “expression of Cyclin D1” value ([2]; 50 μM, at 48 hours) was “decreased” and the “expression of p-JNK” value ([2]; 50 μM, versus blank control) was “increased”. The “expression of p-p38” value ([2]; 50 μM, versus blank control) was “increased”.
